Common to all, as to type: functional
Assay [1] relates to HOP-62. The experiment in a line: Growth inhibition of human HOP62 cells after 48 hrs by sulforhodamine B assay. The conditions noted are these: HOP-62, 48 h.
The nature of assay [2]: Growth inhibition of human HOP92 cells after 48 hrs by sulforhodamine B assay. The conditions noted are these: HOP-92, 48 h.
Assay [3] deals with NCI-H23. The assay is described as follows: Growth inhibition of human NCI-H23 cells after 48 hrs by sulforhodamine B assay. The conditions noted are these: NCI-H23, 48 h. A general note: Sulforhodamine B stains cellular protein and so reports cell mass.
Assay [4] has as its system NCI-H460. The assay is described as follows: Growth inhibition of human NCI-H460 cells after 48 hrs by sulforhodamine B assay. To be noted: NCI-H460, 48 h.
A short description of assay [5]: Growth inhibition of human OVCAR4 cells after 48 hrs by sulforhodamine B assay. The conditions noted are these: OVCAR-4, 48 h.
Assay [6] relates to NCI/ADR-RES. The experiment in a line: Growth inhibition of human NCI/ADR-RES cells after 48 hrs by sulforhodamine B assay.
The subject of assay [7] is SK-OV-3. The assay is described as follows: Growth inhibition of human SKOV3 cells after 48 hrs by sulforhodamine B assay. To be noted: SK-OV-3, 48 h.
Assay [8] deals with SK-MEL-5. The assay is described as follows: Growth inhibition of human SK-MEL-5 cells after 48 hrs by sulforhodamine B assay. To be noted: SK-MEL-5, 48 h.
For assay [9], the system named is ACHN. The assay is described as follows: Growth inhibition of human ACHN cells after 48 hrs by sulforhodamine B assay.
The subject of assay [10] is CAKI-1. The experiment in a line: Growth inhibition of human Caki1 cells after 48 hrs by sulforhodamine B assay. The conditions noted are these: CAKI-1, 48 h.
Assay [11] in a line: Growth inhibition of human COLO205 cells after 48 hrs by sulforhodamine B assay. The conditions noted are these: COLO 205, 48 h.
Assay [12] in a line: Growth inhibition of human HCC2998 cells after 48 hrs by sulforhodamine B assay. The conditions noted are these: HCC 2998, 48 h.
The subject of assay [13] is HT-29. The experiment in a line: Growth inhibition of human HT-29 cells after 48 hrs by sulforhodamine B assay. To be noted: HT-29, 48 h.
The subject of assay [14] is KM12. The assay is described as follows: Growth inhibition of human KM12 cells after 48 hrs by sulforhodamine B assay. The conditions noted are these: KM12, 48 h.
In assay [15] the test system is MDA-MB-468. The experiment in a line: Growth inhibition of human MDA-MB-468 cells after 48 hrs by sulforhodamine B assay. The conditions noted are these: MDA-MB-468, 48 h.

The structures appear in SMILES notation. Some results are limits rather than exact numbers.

As for `COc1ccc2c(c1)CCCN2c1nc(C)nc2oc(C)cc12`, the 50% growth inhibitory concentration (GI50) – broadly, the concentration at which growth is held to half of that of the control – is less than 0.01 µM in [1]; 0.0586 µM in assay [2]; less than 0.01 µM in assay [3]; less than 0.01 µM in [4]; 0.051 µM in assay [5]; less than 0.01 µM in [6]. For the same molecule, the GI50 in assay [7] was less than 0.01 µM; in assay [8] it was less than 0.01 µM; in assay [9], less than 0.01 µM; in [10] it was less than 0.01 µM; in [11] it was less than 0.01 µM; in [12] it was 0.012 µM. Also, the concentration for 50% growth inhibition (GI50) in [13], in assay [14] and in assay [15] was less than 0.01 µM throughout.

The values above are taken from ChEMBL document CHEMBL3400114, “The design, synthesis and biological evaluation of conformationally restricted 4-substituted-2,6-dimethylfuro[2,3-d]pyrimidines as multi-targeted receptor tyrosine kinase and microtubule inhibitors as potential antitumor agents” (Bioorg Med Chem, 2015).
